{"source": "patent US6001359A", "about": "“Diagnosis of colon carcinoma using monoclonal antibodies to human influx peptide transporter” (Eli Lilly and Company, priority 1997, dated 1999)", "key": {"CHO-K1 cells": {"tested_on": "CHO-K1 cells", "assay": "[14C]cephalexin uptake by control CHO-K1 cells (plasmid pRc/RSV)", "type": "cell-based, Chinese hamster", "protocol": "(§1) The samples were incubated at room temperature for 20 minutes."}, "[1]": {"target": "T1, influx peptide transporter (Homo sapiens, UniProt Q12864)", "T1 construct": "about 120 kDa antigen of MAb PTC13G6", "T1 sequence (Q12864 23-832)": "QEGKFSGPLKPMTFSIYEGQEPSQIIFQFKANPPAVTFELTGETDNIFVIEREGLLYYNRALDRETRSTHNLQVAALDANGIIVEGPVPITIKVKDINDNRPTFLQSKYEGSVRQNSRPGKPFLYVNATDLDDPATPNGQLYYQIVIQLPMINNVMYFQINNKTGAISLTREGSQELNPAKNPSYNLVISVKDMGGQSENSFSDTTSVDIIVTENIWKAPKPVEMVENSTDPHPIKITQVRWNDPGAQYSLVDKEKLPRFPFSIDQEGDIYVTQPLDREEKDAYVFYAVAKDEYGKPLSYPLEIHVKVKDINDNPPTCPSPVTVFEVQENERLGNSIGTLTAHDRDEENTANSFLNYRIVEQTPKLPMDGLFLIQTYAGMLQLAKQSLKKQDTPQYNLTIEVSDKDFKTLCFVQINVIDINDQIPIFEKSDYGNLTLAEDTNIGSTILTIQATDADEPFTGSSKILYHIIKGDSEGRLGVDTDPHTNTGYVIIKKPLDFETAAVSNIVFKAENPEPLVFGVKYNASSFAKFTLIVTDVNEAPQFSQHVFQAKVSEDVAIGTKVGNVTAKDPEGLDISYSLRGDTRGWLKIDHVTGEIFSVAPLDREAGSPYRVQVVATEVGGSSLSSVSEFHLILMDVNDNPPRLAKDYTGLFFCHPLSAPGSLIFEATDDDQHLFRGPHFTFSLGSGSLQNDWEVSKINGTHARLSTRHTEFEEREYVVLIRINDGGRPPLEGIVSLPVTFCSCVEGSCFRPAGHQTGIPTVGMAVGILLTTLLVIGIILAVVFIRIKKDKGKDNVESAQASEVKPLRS", "assay": "[14C]cephalexin uptake by CHO-K1 transfectant Clone 9 (plasmid pPSJ179)", "type": "cell-based", "protocol": "as §1"}}}
{"smiles": "CC(C)C[C@H](NC(=O)[C@@H](O)[C@H](N)Cc1ccccc1)C(=O)O", "note": "[bestatin]", "values": [{"measurement": "[14C]-Cephalexin Uptake in presence of bestatin", "setting": "CHO-K1 cells; Control cells, 1 mM [14C]cephalexin + 15 mM bestatin", "value": "0.38 ± 0.08 nmol/mg total cell protein"}, {"measurement": "effect on transport of 1 mM [14C]cephalexin by the control cells", "setting": "CHO-K1 cells; control cells, bestatin or cephalexin", "value": "not inhibited significantly"}, {"measurement": "[14C]-Cephalexin Uptake in presence of bestatin", "setting": "[1]; 1 mM [14C]cephalexin + 15 mM bestatin", "value": "0.42 ± 0.08 nmol/mg total cell protein"}, {"measurement": "effect on uptake of 1 mM cephalexin by the transfectant", "setting": "[1]; 15 mM bestatin or 25 mM unlabelled cephalexin", "value": "inhibited"}, {"measurement": "drug uptake on coincubation, compared with control cells", "setting": "[1]; coincubation with 1 mM [14C]cephalexin", "value": "decreased drug uptake in the representative transfectant (Clone 9) to the level of the control cells"}]}
